pIC50: −log10 of the molar value. Where “and” joins values, the source holds several entries; their conditions need not be identical. Identical values can stand only once.
What was measured:
[1] = system: PDGF-stimulated PDGFR tyrosine phosphorylation; test: Inhibition of PDGF-stimulated PDGFR tyrosine phosphorylation in NIH 3T3 cells (anti-phosphotyrosine Western blot); assay type: cell-based; details: concentrations as high as 10 mM
EGF = molecular target: T1, EGF (Homo sapiens, UniProt P01133); test: Inhibition of [125I]-EGF binding to NIH 3T3 cells overexpressing EGFR; details: 10 μM
T1 construct: host or cells: NIH 3T3 cells overexpressing EGFR carry the receptor
T1 sequence (P01133 971-1023 limits assumed, species assumed): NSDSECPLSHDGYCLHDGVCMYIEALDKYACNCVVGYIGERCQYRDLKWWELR
Method: NIH 3T3 (PDGF) or NIH 3T3 cells overexpressing either EGFR (EGF), IGFR (IGF) or Flk-1 (VEGF), are incubated with [^125I]-PDGF, [^125I]-EGF, [^125I]-IGF or [^125I]-VEGF, respectively (50,000 cpm per well) and increasing concentrations of GFB-111 or GFB-116. Cells are incubated at 4° C. for 1-3 h. After discarding media, the cells are washed 3 times with PBS and three times with Tris 25 mM pH 8.0, 1% T-X-100, 10% glycerol, 1% SDS. Lysates plus wash are counted. Excess of cold growth factors is used to obtain non-specific binding levels.
Whether GFB 111 can block [^125I]-PDGF-BB specific binding in NIH 3T3 cells is determined by pre-treatment of the PDGF-BB with increasing concentrations of GFB-111. FIG. 2C illustrates that in the absence of GFB-111, [^125I]-PDGF-BB is bound by NIH3T3 cells. However, pre-treatment with increasing concentrations of GFB-111, results in a concentration-dependent decrease in PDGF-BB binding.

[2] = system: angiogenesis in U87-MG tumors; test: Angiogenesis: Factor VIII immunostaining and microvessel count in U87MG tumors; assay type: in vivo, nude mice; details: for Microvessel count (Mean ± SD) 250X / Microvessel count (Mean ± SD) 400X: U87-MG tumor
Method: On the indicated termination day of each nude mouse experiment described above, (see also Table 2), the tumors are extracted and half frozen at −70° C., and half is fixed in 10% neutral buffered formalin for 6 hrs. After fixation the tissue samples are processed into paraffin blocks. Four micrometer-thick tissue sections are obtained from the paraffin blocks and stained with hematoxylin and eosin (H&E) (Richard-Allan Scientific, Kalamazoo, Mich.) using standard histologic techniques. Tissue sections are also subjected to immunostaining for Factor VIII using the avidin biotin peroxidase complex technique (Vectastatin Elite ABC Kit, Vector, Burlingame, Calif.). Rabbit polyclonal FVIII antibody (Von Willebrand Factor, Dako Corporation, Carpinteria, Calif.) is used at 1:400 dilution, following microwave antigen retrieval (4 cycles of 5 minutes each on high in 0.1M citrate buffer).

rat glioma C6 = test: Antitumor efficacy, C6 tumor in nude mice; assay type: in vivo
[3] = system: PDGF-BB stimulated DNA synthesis in NIH 3T3 cells; assay type: cell-based; details: 3 h
Method: (§1) Starved NIH 3T3 or NIH 3T3 overexpressing IGFR are treated for 16 hours with indicated concentrations of GFB-111 and either 10 ng/ml PDGF or 50 ng/ml IGF-1, respectively, then labeled for 2 hr (NIH 3T3) or 4 hr (IGFR) with ^3H-thymidine. Cells are then washed in PBS, lysed in 0.1N NaOH and spotted onto glass fiber filters. DNA is precipitated with ice cold ethanol then ^3H-thymidine incorporation quantified by scintillation counting.
(§2) The selectivity of PDGF-induced cellular responses, is evaluated by the selectivity of GFB-111 to inhibit growth factor-stimulated DNA synthesis using a [^3H]-thymidine incorporation assay. […] In contrast GFB-111 is ineffective at inhibiting IGF-1-stimulated DNA synthesis at concentrations as high as 100 μM (FIG. 4).

[4] = system: IGF-1-stimulated DNA synthesis; test: IGF-1-stimulated DNA synthesis ([3H]-thymidine incorporation) in NIH 3T3 overexpressing IGFR; assay type: cell-based; details: concentrations as high as 100 μM
Method: as §1, §2

[5] = system: PDGF-AA stimulated PDGF receptor phosphorylation and Erk1/Erk2 activation; test: PDGF-AA stimulation of PDGF receptor phosphorylation and Erk1/Erk2 activation in NIH 3T3 cells; assay type: cell-based; details: NIH 3T3, PDGF-AA 10 ng/ml
Method: Starved NIII 3T3 cells (PDGF-BB and PDGF-AA), NIH 3T3 cells overexpressing either EGFR (EGF) or Flk-1 (VEGF) are pre-treated with the indicated concentrations of GFB-111 for 5 minutes before 10 minutes of stimulation with PDGF-BB (10 ng/ml), PDGF-AA (10 ng/ml), EGF (100 ng/ml) and VEGF (50 ng/ml). Cell lysates are run on SDS-PAGE gels, then transferred to nitrocellulose and Western blotted with anti-phosphotyrosine (4G 10) or anti-phosphorylated Erk1/Erk2 (New England Biolabs).

[6] = system: bFGF-activation of Erk1/Erk2; test: bFGF activation of Erk1/Erk2 in NIH 3T3 cells; assay type: cell-based; details: concentrations as high as 100 μM
Method: In other experiments, starved NIH 3T3 cells (PDGF-AA, PDGF-BB, aFGF, bFGF), NIH 3T3 cells overexpressing EGFR. IGF-1R or Flk-1 and the human breast carcinoma SkBr3 that overexpresses ErbB2 (HRGβ) are pretreated with GFB-111 (100 μM) for 5 min before 10 min stimulation with the indicated growth factors at the concentrations shown above and aFGF (10 ng/ml), bFGF (50 ng/ml), IGF-1 (50 ng/ml) and HRGβ (10 ng/ml). Cell lysates are then immunoblotted with anti-phospho Erk1/Erk2 as described above.

Compound | Inhibition of PDGF-stimulated PDGFR tyrosine phosphorylation [1] | Effect on [125I]-EGF binding (EGF) | Microvessel count (Mean ± SD) 250X ([2]; 100 mpk) | Microvessel count (Mean ± SD) 400X ([2]; 100 mpk) | Microvessel count (Mean ± SD) 250X ([2]; 200 mpk) | Microvessel count (Mean ± SD) 400X ([2]; 200 mpk) | Inhibition of angiogenesis ([2]; U87MG tumors) | Factor VIII immunostaining in tumors ([2]; U87MG, day 32, 50, 100 and 200 mg per kg) | % Tumor growth inhibition (rat glioma C6; C6, 50 mpk, day in parentheses in cell) | Inhibition of C6 tumor growth in nude mice (rat glioma C6; mouse, in vivo) | pIC50 [3] | Inhibition of IGF-1-stimulated DNA synthesis [4] | PDGF-AA stimulation of PDGF receptor phosphorylation and Erk1/Erk2 activation [5] | bFGF-activation of Erk1/Erk2 [6]
GKGK [GFB-116] | does not inhibit |  |  |  |  |  |  |  |  |  |  |  |  | 
CCCCOc1c2cc(C(=O)Nc3cc4cc(c3)C(=O)NCC(=O)N[C@@H](CC(=O)O)C(=O)NCC(=O)N[C@@H](Cc3ccc(O)cc3)C(=O)NC4)cc1Cc1cc(C(=O)Nc3cc4cc(c3)C(=O)NCC(=O)N[C@@H](CC(=O)O)C(=O)NCC(=O)N[C@@H](Cc3ccc(O)cc3)C(=O)NC4)cc(c1OCCCC)Cc1cc(C(=O)Nc3cc4cc(c3)C(=O)NCC(=O)N[C@@H](CC(=O)O)C(=O)NCC(=O)N[C@@H](Cc3ccc(O)cc3)C(=O)NC4)cc(c1OCCCC)Cc1cc(C(=O)Nc3cc4cc(c3)C(=O)NCC(=O)N[C@@H](CC(=O)O)C(=O)NCC(=O)N[C@@H](Cc3ccc(O)cc3)C(=O)NC4)cc(c1OCCCC)C2 [GFB-111] |  | lack of significant effects | 7.73 ± 2.61 | 5.20 ± 1.71 | 5.13 ± 3.10 | 3.07 ± 1.94 | strongly | decreased in a dose-dependent manner | 54% (15) and 64% (15) and 46% (18) | effective | 5.19 | ineffective | blocked | minimally affected

From patent publication US8361970B2, “Growth factor binding molecules” (University of South Florida, priority 2000, dated 2013)
